From patent publication US11267826B2, “Penicillin-binding protein inhibitors” (priority 2017, dated 2022)

Tests used:
[1] = test system: S. aureus ATCC 29213; assay: Broth microdilution MIC assay, S. aureus; assay type: cell-based; details: Staphylococcus aureus, ATCC29213; broth microdilution, 16-20 hours at 37° C.; read-out: S. aureus 29213 MIC
Outline: (§1)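 Per CLSI: log-phase cultures (3-5 h, 37° C) seeded at 5×10^5 CFU/mL into cation-supplemented Mueller-Hinton broth containing 2-fold compound dilutions. After 16-20 h at 37° C, MIC taken visually as lowest growth-free well, for S. aureus ATCC 29213 and E. coli 901C.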

[2] = molecular target: T1, E. coli K12 PBP1b (Escherichia coli, UniProt P02919); assay: Competition binding assay using Bodipy-FL boronic acid probe (Example 125); details: Bodipy-FL boronic acid probe (Example 125) 30 μM, 10 minutes pre-incubation, 10 minutes reaction
T1 construct: endogenous in cells; host or cells: Escherichia coli K12, membrane protein fraction
Procedure: Penicillin binding proteins were isolated from Escherichia coli K12 by growth of Escherichia coli K12 from a single colony in 4 L of Luria-Bertani (LB) broth at 35° C. and 250 rpm to an OD600 nm of 0.5. The cells were harvested by centrifugation at 7,000×g for 10 min. at 4° C. Cells were resuspended and washed in 50 mM potassium phosphate pH 7.5. The cells were re-suspended in sonication buffer [50 mM Tris-HCl pH 7.5, 1 mM MgCl2, 1 mM beta-mercaptoethanol, and 5 μg/mL DNAse I] and sonicated by 4 passes of 30 seconds at 45 W on ice. The sample was clarified by centrifugation at 3,000×g to remove cell debris and unbroken cells and supernatant containing the membrane proteins was retained. The membrane proteins including the PBPs were further purified from soluble constituents by an ultracentrifugation step at 100,000×g for 30 min. at 4° C. The membrane proteins are washed twice with 10 mM sodium phosphate pH 7, resuspended in a volume of 5 mL, quantitated by BCA assay, adjusted to […] and frozen at −80° C. until use.
The adapted Bocillin FL competition binding method described herein incorporates a 15 min. pre-incubation of test compound with isolated PBPs to attempt to balance the difference in mechanism of inhibition between beta-lactams (largely irreversible covalent bond to active site Serine) and the boron-containing PBP inhibitor test compounds (reversible covalent bond to active site Serine). Briefly, 50 μL reactions consisted of 100 μg's of total membrane protein extracts containing PBPs incubated with a dilution series of test compound ranging from 0.005 μg/mL to 2,480 μg/mL in 10 mM sodium phosphate pH7 containing 350 mM NaCl. Thirty minute reactions at 35° C. were initiated by addition of […] Bocillin FL, quenched by addition of SDS-PAGE loading buffer containing sodium dodecyl sulfate (SDS) and heated for 15 minutes at 95° C. to denature proteins in preparation for SDS-polyacrylamide gel electrophoresis. The Bocillin FL labeled PBPs are then separated by SDS-PAGE in Novex NuPage 10% Bis-Tris pre-cast gels (Invitrogen). The SDS-PAGE gel, post-electrophoresis, is then washed in water to remove excess SDS for 10 minutes at room temperature and placed on the scanning bed of a GE Healthcare/Amersham Biosciences Storm 860 fluorescence scanner. The excitation wavelength is in the blue spectrum at 450 nm and the emission at 520 nm is captured by the instrument. Effective PBP inhibitors are detected by a reduction in Bocillin FL labeling of the particular PBP over the dose range of test compound in a dose-responsive manner. High molecular weight PBP 1a/1b are not resolved by these gels, thus we report HMW PBP binding results in μg/mL for PBPs 1a/1b combined as well as for PBP2 and PBP3.
To determine the ability of boronic acid-based test PBP inhibitors to bind Penicillin Binding Proteins (PBPs), a competition binding assay using a Bodipy-FL-labeled boronic acid PBP inhibitor (Example 125) was adapted from the classical method used to assess PBP potency of beta-lactams using Bocillin-FL (fluorescently-labeled penicillin V). The method is identical to that described in Example I for the Bocillin-FL competition binding assay with the following exceptions, the Bodipy-FL boronic acid probe (Example 125) is used at a final concentration of 30 μM, pre-incubation time of test compound with PBP enzymes is 10 minutes and reaction time is set for 10 minutes and reactions are prepared for SDS-PAGE analysis by simply adding SDS-containing loading buffer. Representative results are shown in Table 5, where A represents a potency of >1000 μg/mL, B represents a potency between 64 and 1000 μg/mL inclusive, and C represents a potency of <64 μg/mL. NT=Not Tested.

[3] = test system: hyper-permeable E. coli 901C; assay: Broth microdilution MIC assay, hyper-permeable E. coli; assay type: cell-based; details: Escherichia coli, read-out: E. coli 901C MIC
Outline: as §1

[4] = molecular target: T2, E. coli PBP2 (Escherichia coli, UniProt P0AD65); assay: Bocillin FL competition binding assay, PBP2; set-up: species or system Escherichia coli K12; details: 15 min pre-incubation
T2 construct: 100 μg's of total membrane protein extracts containing PBPs; endogenous in cells; host or cells: Escherichia coli K12, membrane protein fraction
Outline: (§2)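 E. coli K12 membrane extracts (100 µg protein) pre-incubated 15 min with compound (0.005–2,480 µg/mL) in pH 7 phosphate/350 mM NaCl, then labelled with Bocillin FL 30 min at 35°C; SDS-PAGE fluorescence (ex 450/em 520 nm), μg/mL reported. PBP1a/1b unresolved, reported combined.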

[5] = test system: E. coli K12 PBP1a/b; assay: Bocillin FL competition binding assay, PBP1a/1b combined; set-up: species or system Escherichia coli K12; details: 15 min pre-incubation, PBP 1a/1b combined
Outline: as §2

[6] = molecular target: T3, E. coli PBP3 (Escherichia coli, UniProt P0AD68); assay: Bocillin FL competition binding assay, PBP3; set-up: species or system Escherichia coli K12; details: 15 min pre-incubation
T3 construct: 100 μg's of total membrane protein extracts containing PBPs; endogenous in cells; host or cells: Escherichia coli K12, membrane protein fraction
Outline: as §2

T2 sequence (P0AD65 whole entry): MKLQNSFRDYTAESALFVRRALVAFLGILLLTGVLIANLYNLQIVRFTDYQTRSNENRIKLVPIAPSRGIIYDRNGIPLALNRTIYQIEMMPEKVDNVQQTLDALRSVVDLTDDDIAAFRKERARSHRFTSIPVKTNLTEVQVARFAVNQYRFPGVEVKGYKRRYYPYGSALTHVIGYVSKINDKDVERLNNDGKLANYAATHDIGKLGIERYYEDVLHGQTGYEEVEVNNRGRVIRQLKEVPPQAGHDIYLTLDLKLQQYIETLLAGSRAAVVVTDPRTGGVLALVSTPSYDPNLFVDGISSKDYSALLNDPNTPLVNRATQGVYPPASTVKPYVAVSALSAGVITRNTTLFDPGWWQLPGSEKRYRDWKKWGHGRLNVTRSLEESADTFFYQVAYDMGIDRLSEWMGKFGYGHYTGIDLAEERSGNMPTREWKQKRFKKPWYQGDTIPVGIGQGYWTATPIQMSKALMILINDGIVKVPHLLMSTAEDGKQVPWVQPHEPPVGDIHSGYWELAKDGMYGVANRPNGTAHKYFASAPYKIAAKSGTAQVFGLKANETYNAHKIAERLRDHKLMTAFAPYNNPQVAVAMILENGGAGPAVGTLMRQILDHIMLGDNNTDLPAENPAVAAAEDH
T1 sequence (P02919 whole entry): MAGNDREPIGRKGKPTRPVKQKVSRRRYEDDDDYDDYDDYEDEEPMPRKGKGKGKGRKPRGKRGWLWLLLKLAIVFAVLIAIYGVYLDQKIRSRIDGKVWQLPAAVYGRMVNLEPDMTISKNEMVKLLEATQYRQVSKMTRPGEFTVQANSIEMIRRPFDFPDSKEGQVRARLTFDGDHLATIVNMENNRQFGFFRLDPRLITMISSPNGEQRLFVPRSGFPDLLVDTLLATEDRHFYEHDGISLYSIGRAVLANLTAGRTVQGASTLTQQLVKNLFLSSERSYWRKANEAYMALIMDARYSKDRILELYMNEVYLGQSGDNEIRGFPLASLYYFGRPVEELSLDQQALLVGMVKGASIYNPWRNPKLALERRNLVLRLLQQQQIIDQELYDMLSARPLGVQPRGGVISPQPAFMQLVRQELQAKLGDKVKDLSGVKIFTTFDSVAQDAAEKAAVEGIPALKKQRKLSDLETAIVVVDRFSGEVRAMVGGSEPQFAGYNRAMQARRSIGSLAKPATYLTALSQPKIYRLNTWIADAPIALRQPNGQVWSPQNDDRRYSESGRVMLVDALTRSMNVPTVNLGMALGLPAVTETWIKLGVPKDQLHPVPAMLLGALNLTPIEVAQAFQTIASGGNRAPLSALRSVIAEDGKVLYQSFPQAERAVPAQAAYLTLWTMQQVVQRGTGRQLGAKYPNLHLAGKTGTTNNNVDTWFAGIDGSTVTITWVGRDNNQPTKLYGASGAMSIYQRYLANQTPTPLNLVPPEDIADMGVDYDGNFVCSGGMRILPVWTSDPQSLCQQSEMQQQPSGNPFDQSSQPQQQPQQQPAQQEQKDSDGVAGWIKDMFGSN
T3 sequence (P0AD68 1-577): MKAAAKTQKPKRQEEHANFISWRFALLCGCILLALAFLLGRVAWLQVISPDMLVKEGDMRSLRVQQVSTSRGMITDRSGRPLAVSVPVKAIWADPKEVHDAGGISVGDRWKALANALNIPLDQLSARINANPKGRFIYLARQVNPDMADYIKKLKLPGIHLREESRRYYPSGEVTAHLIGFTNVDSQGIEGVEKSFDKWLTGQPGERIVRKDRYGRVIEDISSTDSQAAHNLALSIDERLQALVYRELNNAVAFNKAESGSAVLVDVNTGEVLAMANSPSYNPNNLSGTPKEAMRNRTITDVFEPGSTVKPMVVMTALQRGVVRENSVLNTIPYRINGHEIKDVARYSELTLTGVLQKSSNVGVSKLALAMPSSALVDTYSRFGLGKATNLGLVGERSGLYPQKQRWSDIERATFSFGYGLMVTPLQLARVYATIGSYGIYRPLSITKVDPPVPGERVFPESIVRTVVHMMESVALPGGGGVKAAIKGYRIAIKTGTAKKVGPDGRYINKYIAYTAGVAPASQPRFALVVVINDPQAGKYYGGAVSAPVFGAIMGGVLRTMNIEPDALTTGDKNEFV

Structure (SMILES) | MIC [1] [µg/mL] | E. coli K12 PBP1b Potency [2] | MIC [3] [µg/mL] | E. coli PBP2 Potency [4] | E. coli K12 PBP1a/b Potency [5] | E. coli PBP3 Potency [6]
N=C(NC1CCNCC1)c1ccc(OCCO/N=C(\C(=O)N[C@H]2Cc3cccc(C(=O)O)c3OB2O)c2csc(N)n2)cc1 [Example 47, (R,Z)-3-(2-(2-aminothiazol-4-yl)-2-((2-(4-(N-(piperidin-4-yl)carbamimidoyl)phenoxy)ethoxy)imino)acetamido)-2-hydroxy-3,4-dihydro-2H-benzo[e][1,2]oxaborinine-8-carboxylic Acid] | 64 to 128 | B (B represents a potency between 64 and 1000 μg/mL inclusive) | < 64 | B (B represents a potency between 64 and 1000 μg/mL inclusive) | B (B represents a potency between 64 and 1000 μg/mL inclusive) | B (B represents a potency between 64 and 1000 μg/mL inclusive)
CCO/N=C(\C(=O)N[C@H]1Cc2cccc(C(=O)O)c2OB1O)c1csc(N)n1 [Example 48, (R,Z)-3-(2-(2-aminothiazol-4-yl)-2-(ethoxyimino)acetamido)-2-hydroxy-3,4-dihydro-2H-benzo[e][1,2]oxaborinine-8-carboxylic Acid] | 64 to 128 | B (B represents a potency between 64 and 1000 μg/mL inclusive) | < 64 | B (B represents a potency between 64 and 1000 μg/mL inclusive) | B (B represents a potency between 64 and 1000 μg/mL inclusive) | B (B represents a potency between 64 and 1000 μg/mL inclusive)
CC(C)(O/N=C(\C(=O)N[C@H]1Cc2cccc(C(=O)O)c2OB1O)c1csc(N)n1)C(=O)N[C@@H](CO)C(=O)O [Example 74, (R)-3-((Z)-2-(2-aminothiazol-4-yl)-2-(((1-(((S)-1-carboxy-2-hydroxyethyl)amino)-2-methyl-1-oxopropan-2-yl)oxy)imino)acetamido)-2-hydroxy-3,4-dihydro-2H-benzo[e][1,2]oxaborinine-8-carboxylic Acid] | > 128 | – | < 64 | C (C represents a potency of <64 μg/mL) | C (C represents a potency of <64 μg/mL) | C (C represents a potency of <64 μg/mL)
CC(C)(O/N=C(\C(=O)N[C@H]1Cc2cccc(C(=O)O)c2OB1O)c1csc(N)n1)C(=O)NCC(=O)O [Example 75, (R,Z)-3-(2-(2-aminothiazol-4-yl)-2-(((1-((carboxymethyl)amino)-2-methyl-1-oxopropan-2-yl)oxy)imino)acetamido)-2-hydroxy-3,4-dihydro-2H-benzo[e][1,2]oxaborinine-8-carboxylic Acid] | > 128 | – | < 64 | C (C represents a potency of <64 μg/mL) | C (C represents a potency of <64 μg/mL) | C (C represents a potency of <64 μg/mL)
Nc1nc(/C(=N/OCC(O)CO)C(=O)N[C@H]2Cc3cccc(C(=O)O)c3OB2O)cs1 (stereo partly drawn) [Example 76, (3R)-3-((Z)-2-(2-aminothiazol-4-yl)-2-((2,3-dihydroxypropoxy)imino)acetamido)-2-hydroxy-3,4-dihydro-2H-benzo[e][1,2]oxaborinine-8-carboxylic Acid] | 64 to 128 | B (B represents a potency between 64 and 1000 μg/mL inclusive) | < 64 | – | – | –
CC(C)(O/N=C(\C(=O)N[C@H]1Cc2cc(O)cc(C(=O)O)c2OB1O)c1csc(N)n1)C(N)=O [Example 82, (R,Z)-3-(2-(((1-amino-2-methyl-1-oxopropan-2-yl)oxy)imino)-2-(2-aminothiazol-4-yl)acetamido)-2,6-dihydroxy-3,4-dihydro-2H-benzo[e][1,2]oxaborinine-8-carboxylic Acid] | > 128 | B (B represents a potency between 64 and 1000 μg/mL inclusive) | < 64 | – | – | –
Nc1nc(/C(=C/c2cccnc2)C(=O)N[C@H]2Cc3cccc(C(=O)O)c3OB2O)cs1 [Example 87, (R,Z)-3-(2-(2-aminothiazol-4-yl)-3-(pyridin-3-yl)acrylamido)-2-hydroxy-3,4-dihydro-2H-benzo[e][1,2]oxaborinine-8-carboxylic Acid] | 64 to 128 | – | < 64 | B (B represents a potency between 64 and 1000 μg/mL inclusive) | A (A represents a potency of >1000 μg/mL) | B (B represents a potency between 64 and 1000 μg/mL inclusive)
Nc1nc(/C(=C\C(=O)O)C(=O)N[C@H]2Cc3cccc(C(=O)O)c3OB2O)cs1 [Example 88, (R,E)-3-(2-(2-aminothiazol-4-yl)-3-carboxyacrylamido)-2-hydroxy-3,4-dihydro-2H-benzo[e][1,2]oxaborinine-8-carboxylic Acid] | > 128 | – | 64 to 128 | B (B represents a potency between 64 and 1000 μg/mL inclusive) | A (A represents a potency of >1000 μg/mL) | B (B represents a potency between 64 and 1000 μg/mL inclusive)
Nc1nc(/C(=C/C(=O)O)C(=O)N[C@H]2Cc3cccc(C(=O)O)c3OB2O)cs1 [Example 89, (R,Z)-3-(2-(2-aminothiazol-4-yl)-3-carboxyacrylamido)-2-hydroxy-3,4-dihydro-2H-benzo[e][1,2]oxaborinine-8-carboxylic Acid] | > 128 | – | 64 to 128 | C (C represents a potency of <64 μg/mL) | A (A represents a potency of >1000 μg/mL) | C (C represents a potency of <64 μg/mL)
Nc1nc(/C(=N/OCCF)C(=O)N[C@H]2Cc3cccc(C(=O)O)c3OB2O)cs1 [Example 113, (R,Z)-3-(2-(2-aminothiazol-4-yl)-2-((2-fluoroethoxy)imino)acetamido)-2-hydroxy-3,4-dihydro-2H-benzo[e][1,2]oxaborinine-8-carboxylic Acid] | 64 to 128 | B (B represents a potency between 64 and 1000 μg/mL inclusive) | < 64 | – | – | –
